# According to paper PMC10401651, “Characterization of Uranyl (UO2^2+) Ion Binding to Amyloid Beta (Aβ) Peptides: Effects on Aβ Structure and Aggregation” (ACS Chemical Neuroscience, 2023):
# Molecular target: T1, Aβ40 peptides (Homo sapiens, UniProt P05067)
# T1 construct: namely, the Aβ40 peptide; purchased AlexoTech AB (Umeå, Sweden); host or cells: recombinant
# Experiment: ThT fluorescence measurements of Aβ40 aggregation kinetics
# Format: biochemical
# Details: for t1/2 (aggregation halftime): 15 h; for ΔThT (increase in ThT fluorescence): 20 μM Aβ40, pH 7.3, 37 °C, end of 15 h
# Experimental: Fitting eq 1 to the ThT fluorescence curves in Figure 1 produced the kinetic parameters Tlag and t1/2 (Table 1). […] The two samples with 0 and 0.04 μM uranyl both have aggregation half-times of around 3 h and lag times of around 2 h under the experimental conditions (Table 1). The aggregation of the 0.2 μM uranyl sample is clearly slower, with a half-time of almost 7 h and a lag time of around 5 h.
# Thioflavin T is a benzothiazole dye that increases in fluorescence upon binding to amyloid aggregates[116] and is therefore used to monitor the formation of amyloid aggregates. The ThT dye was excited at 440 nm, and ThT fluorescence emission at 480 nm was measured every 5 min. Before each measurement, the plate was shaken in orbital mode for 140 s at 200 rpm. The samples were incubated for a total of 15 h, and the assay was repeated three times with four replicates of each condition. To determine kinetic aggregation parameters, the data was fitted to eq 1: [drawing 1] 1 Here, F0 and F∞ are the intercepts of the initial and final fluorescence intensity baselines, m0 and m∞ are the slopes of the initial and final baselines, t1/2 is the time needed to reach halfway through the elongation phase (i.e., aggregation half-time), and τ is the elongation time constant.[116]
# [1] = 0.04 μM uranyl acetate, 20 μM Aβ40, 20 mM MES pH 7.3, 37 °C
# [2] = 0.2 μM uranyl acetate, 20 μM Aβ40, 20 mM MES pH 7.3, 37 °C
# [3] = 0.2 μM uranyl acetate, 20 μM Aβ40, 20 mM MES pH 7.3, 37 °C, listed as uranyl
# T1 sequence (P05067 672-711 limits assumed): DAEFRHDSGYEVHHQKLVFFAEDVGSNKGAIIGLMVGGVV
structure (smiles),measurement,setting,value
"CC(=O)[O-].CC(=O)[O-].[O]=[U+2]=[O] [uranyl ions, uranyl acetate]",Tlag (lag time),[1],2.0 ± 1.1 h
same,t1/2 (aggregation halftime),[1],around 3 h
same,Tlag (lag time),"0.04 μM uranyl acetate, 20 μM Aβ40, 20 mM MES pH 7.3, 37 °C, listed as uranyl",around 2 h
same,ΔThT (increase in ThT fluorescence),0.04 μM uranyl acetate,1286 a.u.
same,Tlag (lag time),[2],5.2 ± 0.9 h
same,t1/2 (aggregation halftime),[2],6.7 ± 1.4 h
same,t1/2 (aggregation halftime),[3],~7 h
same,Tlag (lag time),[3],around 5 h
same,ΔThT (increase in ThT fluorescence),0.2 μM uranyl acetate,958 a.u.
same,ΔThT (increase in ThT fluorescence),0.4 μM uranyl acetate,101 a.u.
same,"lag time, visually estimated","0.4 μM uranyl, 20 μM Aβ40, 20 mM MES pH 7.3, 37 °C",approximately 9 h
same,ΔThT (increase in ThT fluorescence),2 μM uranyl acetate,0 a.u.
same,ΔThT (increase in ThT fluorescence),20 μM uranyl acetate,0 a.u.
same,Aβ40 aggregation seen in ThT curves,"2 and 20 μM uranyl, 20 μM Aβ40, 15 h",no obvious signs of aggregation after 15 h
